Drawing on PubChem BioAssay AID330 (DTP/NCI, 2004), this text covers T/C for 27 compounds.

“And” between values parts separate entries of the source, which are not always exact repeats. Equal values may be shown once. Inconclusive results and toxic doses are left out.

For this assay, the system named is P388 leukemia ip, CD2F1 mice, survival T/C. Description: NCI In Vivo Anticancer Drug Screen. Data for tumor model P388 Leukemia (intraperitoneal) in CD2F1 (CDF1) mice. The settings on record: endpoint: median survival time, higher = longer survival. Summed up:
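Mice carrying the transplanted tumor received test compound or vehicle. Survival was recorded in each group, and the value is the treated-group measurement divided by that of the vehicle-treated control group.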

Where [1] appears, read: dose: 25.0 mg/kg/injection, schedule: Q01DX009 (ip), vehicle: saline with Tween-80.
Where [2] appears, read: dose: 50.0 mg/kg/injection, schedule: Q01DX009 (ip), vehicle: saline with Tween-80.
[3] abbreviates: dose: 100.0 mg/kg/injection, schedule: Q01DX009 (ip), vehicle: saline with Tween-80.
[4] abbreviates: dose: 200.0 mg/kg/injection, schedule: Q01DX009 (ip), vehicle: saline with Tween-80.
Where [5] appears, read: dose: 60.0 mg/kg/injection, schedule: Q01DX005 (ip), vehicle: saline with Tween-80.
[6] abbreviates: dose: 120.0 mg/kg/injection, schedule: Q01DX005 (ip), vehicle: saline with Tween-80.
Where [7] appears, read: dose: 240.0 mg/kg/injection, schedule: Q01DX005 (ip), vehicle: saline with Tween-80.
[8] abbreviates: dose: 50.0 mg/kg/injection, schedule: Q01DX005 (ip), vehicle: saline with Tween-80.
Setting [9] is: dose: 50.0 mg/kg/injection, schedule: Q01DX005 (ip), vehicle: Klucel (hydroxypropylcellulose) (HPC).
Setting [10] is: dose: 100.0 mg/kg/injection, schedule: Q01DX005 (ip), vehicle: Klucel (hydroxypropylcellulose) (HPC).
[11] abbreviates: dose: 100.0 mg/kg/injection, schedule: Q04DX003 (ip), vehicle: saline with Tween-80.
[12] abbreviates: dose: 200.0 mg/kg/injection, schedule: Q04DX003 (ip), vehicle: saline with Tween-80.
Where [13] appears, read: dose: 400.0 mg/kg/injection, schedule: Q04DX003 (ip), vehicle: saline with Tween-80.

Turning to `C1N2CN3CN1CN(C2)C3` (tested in a mixture with another compound), the T/C by setting is: (dose: 50.0 mg/kg/injection, schedule: Q01DX009 (ip), vehicle: saline) 107 % of control; (dose: 100.0 mg/kg/injection, schedule: Q01DX009 (ip), vehicle: saline) 101 % of control; (dose: 200.0 mg/kg/injection, schedule: Q01DX009 (ip), vehicle: saline) 107 % of control.
As to `Oc1c(Br)cc(Br)cc1C1CCCCC1`, the T/C by setting is: under setting [1], 110 % of control; under setting [2], 119 % of control; under setting [3], 107 % of control; under setting [4], 113 % of control.
With `CN(C)c1ccc(C=Nc2ccc(OCCCCCCCCCCC(=O)O)cc2)cc1`, the T/C is 93 % of control under setting [2], 88 % of control under setting [3] and 90 % of control under setting [4].
Turning to `Cn1c(=O)c2cc(C(N)=O)c(=O)oc2n(C)c1=O`, the T/C is 109 % of control (dose: 62.5 mg/kg/injection, schedule: Q01DX001 (ip), vehicle: Klucel (hydroxypropylcellulose) (HPC)); 110 % of control (dose: 125.0 mg/kg/injection, schedule: Q01DX001 (ip), vehicle: Klucel (hydroxypropylcellulose) (HPC)); 114 % of control (dose: 250.0 mg/kg/injection, schedule: Q01DX001 (ip), vehicle: Klucel (hydroxypropylcellulose) (HPC)).
Consider `NC(N)=NCCC(=O)c1cnc(N)[nH]1`, for which the T/C (dose: 8.75 mg/kg/injection, schedule: Q01DX005 (ip), vehicle: Klucel (hydroxypropylcellulose) (HPC)) is 106 % of control; the T/C (dose: 17.5 mg/kg/injection, schedule: Q01DX005 (ip), vehicle: Klucel (hydroxypropylcellulose) (HPC)) is 107 % of control; the T/C (dose: 35.0 mg/kg/injection, schedule: Q01DX005 (ip), vehicle: Klucel (hydroxypropylcellulose) (HPC)) was 100 % of control.
For the compound `COC(=O)CSc1nnc(CSc2ccc(Cl)cc2)n1-c1ccccc1`, the T/C is 93 % of control under setting [5], 92 % of control under setting [6] and 96 % of control under setting [7].
For `CC1(C)N=C(N)N=C(N)N1c1cccc(OCCOc2ccccc2[N+](=O)[O-])c1`, in that order: 104 % of control, 95 % of control and 98 % of control.
As for `CC(C)=CC(=O)C1=C(O)C(=O)OC1`, the T/C by setting is: under setting [2], 109 % of control; under setting [3], 108 % of control; under setting [4], 107 % of control.
The matching figures for `CC(=O)OCC1OC(n2ncc(=S)[nH]c2=O)C2OC(C)(C)OC12` (centres undefined): 92 % of control, 95 % of control and 97 % of control.
For the compound `CC(C#N)(C#N)N=Nc1ccc(Br)cc1`, the T/C is 106 % of control under setting [8] and 105 % of control (dose: 100.0 mg/kg/injection, schedule: Q01DX005 (ip), vehicle: saline with Tween-80).
`N#[N+]c1ccc2c(S(=O)(=O)Oc3ccc(C(=O)c4ccccc4)c(OS(=O)(=O)c4cccc5c([O-])c([N+]#N)ccc45)c3)cccc2c1[O-]`: the T/C is 110 % of control (dose: 12.5 mg/kg/injection, schedule: Q01DX005 (ip), vehicle: saline with Tween-80); 107 % of control (dose: 25.0 mg/kg/injection, schedule: Q01DX005 (ip), vehicle: saline with Tween-80); 105 % of control and 107 % of control under setting [8].
Regarding `O=C(Cc1ccc([N+](=O)[O-])cc1)ON1C(=O)CCC1=O`, the T/C is 117 % of control under setting [5] and 114 % of control under setting [6].
Consider `S=P1(Oc2ccccc2)Nc2cccc3cccc(c23)N1`, for which the T/C is 98 % of control (dose: 25.0 mg/kg/injection, schedule: Q01DX005 (ip), vehicle: Klucel (hydroxypropylcellulose) (HPC)); 106 % of control under setting [9]; 102 % of control under setting [10]; 103 % of control (dose: 200.0 mg/kg/injection, schedule: Q01DX005 (ip), vehicle: Klucel (hydroxypropylcellulose) (HPC)).
In the case of `CCOC(=O)C(C)n1ncnn1` (centres undefined), the T/C (dose: 50.0 mg/kg/injection, schedule: Q01DX005 (ip), vehicle: saline) was 107 % of control; the T/C (dose: 100.0 mg/kg/injection, schedule: Q01DX005 (ip), vehicle: saline) was 102 % of control; the T/C (dose: 200.0 mg/kg/injection, schedule: Q01DX005 (ip), vehicle: saline) was 98 % of control.
With `COC(=O)c1ccc(-c2cc(Cl)c3cc(S(=O)(=O)F)ccc3n2)cc1`, the T/C by setting is: under setting [11], 95 % of control; under setting [12], 90 % of control; under setting [13], 90 % of control.
On to `COc1cccc(C)c1NC1=NCCO1`, for which the T/C reads like this: (dose: 0.78 mg/kg/injection, schedule: Q04DX003 (ip), vehicle: saline with Tween-80) 100 % of control; (dose: 1.56 mg/kg/injection, schedule: Q04DX003 (ip), vehicle: saline with Tween-80) 100 % of control; (dose: 3.13 mg/kg/injection, schedule: Q04DX003 (ip), vehicle: saline with Tween-80) 104 % of control.
Regarding `CN=Nc1c(O)[nH]c2ccc(C)cc12`, the T/C runs as follows: under setting [5], 96 % of control; under setting [6], 98 % of control; under setting [7], 92 % of control.
Take `O=C(NC1CC(c2ccccc2)(c2ccccc2)OC1=O)c1ccccc1` (centres undefined): the T/C reads like this: under setting [2], 100 % of control; under setting [3], 86 % of control.
On to `CC1=NCc2nnn(Cc3ccccc3)c2N1`, for which the T/C (dose: 50.0 mg/kg/injection, schedule: Q01DX009 (ip), vehicle: Klucel (hydroxypropylcellulose) (HPC)) is 100 % of control; the T/C (dose: 100.0 mg/kg/injection, schedule: Q01DX009 (ip), vehicle: Klucel (hydroxypropylcellulose) (HPC)) is 95 % of control; the T/C (dose: 200.0 mg/kg/injection, schedule: Q01DX009 (ip), vehicle: Klucel (hydroxypropylcellulose) (HPC)) is 103 % of control.
`Cn1c(=O)c2c(nc(CCCCc3nc4c(c(=O)n(C)c(=O)n4C)n3C)n2C)n(C)c1=O`: the T/C (dose: 1.56 mg/kg/injection, schedule: Q01DX009 (ip), vehicle: saline with Tween-80) was 87 % of control; the T/C (dose: 3.13 mg/kg/injection, schedule: Q01DX009 (ip), vehicle: saline with Tween-80) was 89 % of control; the T/C (dose: 6.25 mg/kg/injection, schedule: Q01DX009 (ip), vehicle: saline with Tween-80) is 88 % of control; the T/C under setting [2] is 86 % of control.
With `O=C1Nc2ccc(Br)cc2/C1=c1/sc2nc3ccccc3n2c1=O`, the T/C (dose: 1.56 mg/kg/injection, schedule: Q01DX005 (ip), vehicle: saline with Tween-80) is 100 % of control; the T/C (dose: 3.12 mg/kg/injection, schedule: Q01DX005 (ip), vehicle: saline with Tween-80) was 98 % of control; the T/C (dose: 6.25 mg/kg/injection, schedule: Q01DX005 (ip), vehicle: saline with Tween-80) is 100 % of control; the T/C under setting [9] is 87 % of control; the T/C under setting [10] is 94 % of control.
For the compound `NC(N)=NS(=O)(=O)c1ccc([N+](=O)[O-])cc1`, the T/C is, setting by setting: (dose: 12.5 mg/kg/injection, schedule: Q01DX009 (ip), vehicle: saline with Tween-80) 103 % of control; under setting [1], 107 % of control; under setting [2], 111 % of control.
Take `S=C(N/N=C/c1ccccn1)Nc1ccccn1`: the T/C (dose: 130.0 mg/kg/injection, schedule: Q04DX003 (ip), vehicle: Klucel (hydroxypropylcellulose) (HPC)) was 117 % of control; the T/C (dose: 200.0 mg/kg/injection, schedule: Q04DX003 (ip), vehicle: Klucel (hydroxypropylcellulose) (HPC)) is 123 % of control; the T/C (dose: 300.0 mg/kg/injection, schedule: Q04DX003 (ip), vehicle: Klucel (hydroxypropylcellulose) (HPC)) is 107 % of control.
For `CCc1c(O)c2c(n(C)c1=O)CC(C)(C)NC2=S`, the T/C runs as follows: (dose: 60.0 mg/kg/injection, schedule: Q01DX005 (ip), vehicle: Klucel (hydroxypropylcellulose) (HPC)) 100 % of control; (dose: 120.0 mg/kg/injection, schedule: Q01DX005 (ip), vehicle: Klucel (hydroxypropylcellulose) (HPC)) 100 % of control.
As for `CCOC(CN1Cc2cc(OC)c(OC)cc2CC1c1ccc(OC)c(OC)c1)OCC` (centres undefined), the T/C by setting is: under setting [5], 95 % of control; under setting [6], 92 % of control.
For the compound `CC(=O)NC(C)CC1=CC(=O)C(C)=CC1=O` (centres undefined), the T/C (dose: 25.0 mg/kg/injection, schedule: Q01DX001 (ip), vehicle: Klucel (hydroxypropylcellulose) (HPC)) was 95 % of control.
Turning to `O=C1c2ccccc2C(=O)c2ncccc21`, the T/C is, setting by setting: under setting [11], 100 % of control; under setting [12], 99 % of control; under setting [13], 100 % of control.
